Like-named read-outs stand apart in the source and are kept apart here.
What was measured:
DPP1 in HL-60 cells = DPP1 in HL-60 cells (Homo sapiens (Human), UniProt P53634); assay: DPP1 Cell IC50 assay; assay type: cell-based; conditions: H-Gly-Phe-AFC substrate, 60 min pre-incubation
Experimental: Media was changed every three to four days and cells were not allowed to exceed 1×10^6 cells per mL. Prior to assay, cells were collected by centrifugation at 500 rcf for 3 minutes, resuspended in PBS and counted. Cells were diluted in PBS to a concentration of 5×10^5 live cells per mL and transferred to black 96-well plates for assay, 60 μL per well. Test articles were diluted in PBS plus 0.5% DMSO, and 20 μL was added to each assay well. Compound was allowed to pre-incubate with cells with gentle shaking at 100 rpm for 60 minutes at 37° C. in a cell culture incubator maintained at 5% CO2, after which 20 μL of 500 μM H-Gly-Phe-AFC substrate (MP Biomedicals; Solon, OH) was added to each well. Plates were returned to the incubator with shaking at 100 rpm for 30 minutes, after which fluorescence was measured at Excitation/Emission 400/505 nm. % Inhibition was calculated from RFU values compared to control cell wells that received only PBS plus 0.5% DMSO. IC50 values for each compound were calculated via the XLFit (IDBS Version 5.3.1.3) Add-On to Microsoft Excel using the four parameter fit equation y=(A+((B-A)/(1+((C/x)^D)))), which appears as equation number 205 (4 Parameter Logistic Model or Sigmoidal Dose-Response Model) in XLFit.

human DPP1 enzyme = human DPP1 enzyme (Homo sapiens (Human), UniProt P53634); assay: Human DPP1 enzyme IC50 assay; assay type: biochemical
Summary of the method: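 Fluorogenic readout (350/450 nm, every 5 min over 90 min, 37°C) of H-Gly-Arg-AMC cleavage at 400 μM final substrate. Compounds met activated DPP1 first for a 10-min 37°C pre-incubation in MES buffer pH 6.0 with DTT, 1% DMSO final. Four-parameter sigmoidal fit gave IC50.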

[1] = recombinant human DPP1, H-Gly-Arg-AMC substrate 400 μM

DPP1 in HL-60 cells, sequence (P53634 25-134): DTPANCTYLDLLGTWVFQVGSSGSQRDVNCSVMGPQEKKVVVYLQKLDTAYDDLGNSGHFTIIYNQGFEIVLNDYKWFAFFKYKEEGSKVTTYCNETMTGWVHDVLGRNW
DPP1 in HL-60 cells, sequence (P53634 231-394): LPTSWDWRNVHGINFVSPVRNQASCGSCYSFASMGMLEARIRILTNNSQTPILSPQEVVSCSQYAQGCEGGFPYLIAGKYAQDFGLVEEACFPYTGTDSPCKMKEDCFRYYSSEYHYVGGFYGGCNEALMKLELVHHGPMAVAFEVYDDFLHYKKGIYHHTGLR
DPP1 in HL-60 cells, sequence (P53634 395-463): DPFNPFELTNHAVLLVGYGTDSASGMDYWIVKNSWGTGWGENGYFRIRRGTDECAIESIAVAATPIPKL
human DPP1 enzyme, sequence (P53634 25-134): as the sequence (P53634 25-134) above
human DPP1 enzyme, sequence (P53634 231-394): as the sequence (P53634 231-394) above
human DPP1 enzyme, sequence (P53634 395-463): as the sequence (P53634 395-463) above

Row | SMILES | IC50 (DPP1 in HL-60 cells) [nM] | IC50 (human DPP1 enzyme; [1]) [nM] | IC50 (human DPP1 enzyme) [nM]
1 | Cn1c(=O)oc2ccc(-c3ccc(C[C@@H](C#N)NC(=O)C(N)Cc4cccnc4O)cc3)cc21 (stereo partly drawn) [Compound 199, 2-amino-N-[(1S)-1-cyano-2-[4-(3-methyl-2-oxo-1,3-benzoxazol-5-yl)phenyl]ethyl]-3-(2-hydroxypyridin-3-yl)propanamide] | ≥ 2.5 | ≥ 15 | 
2 | Cn1c(=O)oc2ccc(-c3ccc(C[C@@H](C#N)NC(=O)C(N)Cc4cncs4)cc3)cc21 (stereo partly drawn) [Compound 201, 2-amino-N-[(1S)-1-cyano-2-[4-(3-methyl-2-oxo-1,3-benzoxazol-5-yl)phenyl]ethyl]-3-(1,3-thiazol-5-yl)propanamide] | ≥ 2.5 | ≥ 15 | 
3 | Cn1c(=O)oc2ccc(-c3ccc(C[C@@H](C#N)NC(=O)[C@@H](N)Cc4cccnc4)cc3)cc21 [Compound 202, (S)-2-amino-N—((S)-1-cyano-2-(4-(3-methyl-2-oxo-2,3-dihydrobenzo[d]oxazol-5-yl)phenyl)ethyl)-3-(pyridin-3-yl)propanamide] | ≥ 2.5 | 5 to 15 | 
4 | Cn1c(=O)oc2ccc(-c3ccc(C[C@@H](C#N)NC(=O)C(N)Cc4ccccc4O)cc3)cc21 (stereo partly drawn) [Compound 203, 2-amino-N-[(1S)-1-cyano-2-[4-(3-methyl-2-oxo-1,3-benzoxazol-5-yl)phenyl]ethyl]-3-(2-hydroxyphenyl)propanamide] | ≥ 2.5 | 5 to 15 | 
5 | Cn1c(=O)oc2ccc(-c3ccc(C[C@@H](C#N)NC(=O)C(N)Cc4cocn4)cc3)cc21 (stereo partly drawn) [Compound 204, 2-amino-N-[(1S)-1-cyano-2-[4-(3-methyl-2-oxo-1,3-benzoxazol-5-yl)phenyl]ethyl]-3-(1,3-oxazol-4-yl)propanamide] | 1 to 2.5 | ≤ 5 | 
6 | Cn1c(=O)oc2ccc(-c3ccc(C[C@@H](C#N)NC(=O)[C@@H](N)[C@@H]4CCc5ccccc54)cc3)cc21 [Compound 206, (S)-2-amino-N—((S)-1-cyano-2-(4-(3-methyl-2-oxo-2,3-dihydrobenzo[d]oxazol-5-yl)phenyl)ethyl)-2-((R)-2,3-dihydro-1H-inden-1-yl)acetamide] | ≥ 2.5 | ≥ 15 | 
7 | Cn1c(=O)oc2ccc(-c3ccc(C[C@@H](C#N)NC(=O)[C@@H](N)[C@H]4CCc5ccccc54)cc3)cc21 [Compound 207, (S)-2-amino-N—((S)-1-cyano-2-(4-(3-methyl-2-oxo-2,3-dihydrobenzo[d]oxazol-5-yl)phenyl)ethyl)-2-((S)-2,3-dihydro-1H-inden-1-yl)acetamide] | ≥ 2.5 | ≥ 15 | 
8 | Cn1c(=O)oc2ccc(-c3ccc(C[C@@H](C#N)NC(=O)C(N)Cc4cc[nH]c4)cc3)cc21 (stereo partly drawn) [Compound 208, 2-amino-N-[(1S)-1-cyano-2-[4-(3-methyl-2-oxo-1,3-benzoxazol-5-yl)phenyl]ethyl]-3-(1H-pyrrol-3-yl)propanamide] | ≥ 2.5 |  | < 5
9 | Cn1c(=O)oc2ccc(-c3ccc(C[C@@H](C#N)NC(=O)[C@H](N)[C@H]4CCCO4)cc3)cc21 [Compound 211, (2R)-2-amino-N-[(1S)-1-cyano-2-[4-(3-methyl-2-oxo-1,3-benzoxazol-5-yl)phenyl]ethyl]-2-[(2R)-oxolan-2-yl]acetamide] | ≥ 2.5 | ≥ 15 | 
10 | Cn1c(=O)oc2ccc(-c3ccc(C[C@@H](C#N)NC(=O)[C@H](N)[C@@H]4CCCO4)cc3)cc21 [Compound 213, (2R)-2-amino-N-[(1S)-1-cyano-2-[4-(3-methyl-2-oxo-1,3-benzoxazol-5-yl)phenyl]ethyl]-2-[(2S)-oxolan-2-yl]acetamide] | ≥ 2.5 | ≥ 15 | 
11 | Cn1c(=O)oc2ccc(-c3ccc(C[C@@H](C#N)NC(=O)[C@@H](N)Cc4cn[nH]c4)cc3)cc21 [Compound 214, (2S)-2-amino-N-[(1S)-1-cyano-2-[4-(3-methyl-2-oxo-1,3-benzoxazol-5-yl)phenyl]ethyl]-3-(1H-pyrazol-4-yl)propanamide] | ≥ 2.5 | ≥ 15 | 
12 | Cn1c(=O)oc2ccc(-c3ccc(C[C@@H](C#N)NC(=O)[C@H](N)Cc4c[nH]cn4)cc3)cc21 [Compound 215, (2R)-2-amino-N-[(1S)-1-cyano-2-[4-(3-methyl-2-oxo-1,3-benzoxazol-5-yl)phenyl]ethyl]-3-(1H-imidazol-4-yl)propanamide] | ≥ 2.5 | ≥ 15 | 
13 | Cn1c(=O)oc2ccc(-c3ccc(C[C@@H](C#N)NC(=O)C(N)Cc4ncsc4Cl)cc3)cc21 (stereo partly drawn) [Compound 218, 2-amino-3-(5-chloro-1,3-thiazol-4-yl)-N-[(1S)-1-cyano-2-[4-(3-methyl-2-oxo-1,3-benzoxazol-5-yl)phenyl]ethyl]propanamide] | ≥ 2.5 | 5 to 15 | 
14 | Cn1c(=O)oc2ccc(-c3ccc(C[C@@H](C#N)NC(=O)C(C)(N)C4CCCC4)cc3)cc21 (stereo partly drawn) [Compound 219, 2-amino-N-[(1S)-1-cyano-2-[4-(3-methyl-2-oxo-1,3-benzoxazol-5-yl)phenyl]ethyl]-2-cyclopentylpropanamide] | 1 to 2.5 | ≤ 5 | 
15 | Cn1c(=O)oc2ccc(-c3ccc(C[C@@H](C#N)NC(=O)C(C)(N)C4CCC4)cc3)cc21 (stereo partly drawn) [Compound 220, 2-amino-N-[(1S)-1-cyano-2-[4-(3-methyl-2-oxo-1,3-benzoxazol-5-yl)phenyl]ethyl]-2-cyclobutylpropanamide] | 1 to 2.5 | ≤ 5 | 
16 | Cn1c(=O)oc2ccc(-c3ccc(C[C@@H](C#N)NC(=O)C(N)Cc4cc[nH]n4)cc3)cc21 (stereo partly drawn) [Compound 221, 2-amino-N-[(1S)-1-cyano-2-[4-(3-methyl-2-oxo-1,3-benzoxazol-5-yl)phenyl]ethyl]-3-(1H-pyrazol-3-yl)propanamide] | ≥ 2.5 | ≤ 5 | 

Further lines, with some results ahead:

Row | IC50 (DPP1 in HL-60 cells) [nM] | IC50 (human DPP1 enzyme; [1]) [nM] | SMILES | IC50 (human DPP1 enzyme) [nM]
17 | 1 to 2.5 | ≤ 5 | Cn1c(=O)oc2ccc(-c3ccc(C[C@@H](C#N)NC(=O)C4(N)CCCC45CC5)cc3)cc21 (stereo partly drawn) [Compound 222, 4-amino-N-[(1S)-1-cyano-2-[4-(3-methyl-2-oxo-1,3-benzoxazol-5-yl)phenyl]ethyl]spiro[2.4]heptane-4-carboxamide] | 
18 | ≥ 2.5 | ≤ 5 | Cn1c(=O)oc2ccc(-c3ccc(C[C@@H](C#N)NC(=O)C(N)Cc4ccon4)cc3)cc21 (stereo partly drawn) [Compound 231, 2-amino-N-[(1S)-1-cyano-2-[4-(3-methyl-2-oxo-1,3-benzoxazol-5-yl)phenyl]ethyl]-3-(1,2-oxazol-3-yl)propanamide] | 
19 | ≥ 2.5 | ≥ 15 | C[C@@H](NCc1cccs1)C(=O)N[C@H](C#N)Cc1ccc(-c2ccc3oc(=O)n(C)c3c2)cc1 [Compound 232, (2R)—N-[(1S)-1-cyano-2-[4-(3-methyl-2-oxo-1,3-benzoxazol-5-yl)phenyl]ethyl]-2-[(thiophen-2-ylmethyl)amino]propanamide] | 
20 | ≥ 2.5 | ≥ 15 | N#Cc1ccc(-c2ccc(C[C@H](C#N)NC(=O)C3(N)CCOCC3)c(I)c2)cc1 [Compound 249, 4-amino-N-[(1R)-1-cyano-2-{4′-cyano-3-iodo-[1,1′-biphenyl]-4-yl}ethyl]oxane-4-carboxamide] | 
21 | ≥ 2.5 | 5 to 15 | Cn1ccc(CC(N)C(=O)N[C@H](C#N)Cc2ccc(-c3ccc4oc(=O)n(C)c4c3)cc2)c1 (stereo partly drawn) [Compound 254, 2-amino-N-[(1S)-1-cyano-2-[4-(3-methyl-2-oxo-1,3-benzoxazol-5-yl)phenyl]ethyl]-3-(1-methylpyrrol-3-yl)propanamide] | 
22 | ≥ 2.5 | ≥ 15 | COCCN(C)CCn1c(=O)oc2ccc(-c3ccc(C[C@@H](C#N)NC(=O)[C@@](C)(N)C4CCCC4)cc3)cc21 [Compound 258A, (2S)-2-amino-N-[(1S)-1-cyano-2-[4-(3-{2-[(2-methoxyethyl)(methyl)amino]ethyl}-2-oxo-1,3-benzoxazol-5-yl)phenyl]ethyl]-2-cyclopentylpropanamide] | 
23 | 1 to 2.5 | ≤ 5 | COCCN(C)CCn1c(=O)oc2ccc(-c3ccc(C[C@@H](C#N)NC(=O)[C@](C)(N)C4CCCC4)cc3)cc21 [Compound 258B, (2R)-2-amino-N-[(1S)-1-cyano-2-[4-(3-{2-[(2-methoxyethyl)(methyl)amino]ethyl}-2-oxo-1,3-benzoxazol-5-yl)phenyl]ethyl]-2-cyclopentylpropanamide] | 
24 | 1 to 2.5 | ≤ 5 | CCN1C(=O)Cc2ccc(-c3ccc(C[C@@H](C#N)NC(=O)[C@@](C)(N)C4CCCC4)cc3)cc21 [Compound 259A, (2S)-2-amino-N-[(1S)-1-cyano-2-[4-(1-ethyl-2-oxo-3H-indol-6-yl)phenyl]ethyl]-2-cyclopentylpropanamide] | 
25 | ≥ 2.5 | ≥ 15 | CCN1C(=O)Cc2ccc(-c3ccc(C[C@@H](C#N)NC(=O)[C@@](C)(N)C4CCCC4)c(F)c3)cc21 [Compound 264A, (2S)-2-amino-N-[(1S)-1-cyano-2-[4-(1-ethyl-2-oxo-3H-indol-6-yl)-2-fluorophenyl]ethyl]-2-cyclopentylpropanamide] | 
26 | 1 to 2.5 | ≤ 5 | CCN1C(=O)Cc2ccc(-c3ccc(C[C@@H](C#N)NC(=O)[C@](C)(N)C4CCCC4)c(F)c3)cc21 [Compound 264B, (2R)-2-amino-N-[(1S)-1-cyano-2-[4-(1-ethyl-2-oxo-3H-indol-6-yl)-2-fluorophenyl]ethyl]-2-cyclopentylpropanamide] | 

Reference: patent US20260008758A1, “LINEAR DIPEPTIDYL PEPTIDASE 1 INHIBITORS AND USES THEREOF” (Insmed Incorporated, priority 2024, published 2026)
